The assay has as its system Hepatitis C replicon in Huh-7 cells. The assay can be described thus: HCV replicon replication assay (NPT ELISA). It counts as cell-based. The following applies: Hepatitis C virus, Huh-7, 72 h. Here is the method: Compounds claimed herein are tested for the ability to inhibit viral replication of the Hepatitis C replicon in cultured cells in which the HCV replicon construct has been incorporated. The HCV replicon system was described by Bartenschlager, et. al (Science, 285, pp. 110-113 (1999)). The replicon system is predictive of in vivo anti-HCV activity; compounds that are active in humans uniformly evidence activity in the replicon assay.
In this assay HCV replicon containing cells are treated with different concentrations of the test compound to ascertain the ability of the test compound to suppress replication of the HCV replicon. As a positive control, HCV replicon-containing cells are treated with different concentrations of interferon alpha, a known inhibitor of HCV replication. The replicon assay system includes Neomycin Phosphotransferase (NPT) as a component of the replicon itself in order to detect the transcription of replicon gene products in the host cell. Cells in which the HCV replicon is actively replicating have high levels of NPT; the level of NPT is proportional to HCV replication. […] The NPT level of each sample is measured using a captured ELISA.
A protocol for testing compounds for the ability to inhibit viral replication of the Hepatitis C replicon cultured cells in which the replicon construct has been incorporated, follows.
The HCV replicon contains, 5′-3′, the HCV-IRES, the neomycin phosphotransferase (neo) gene, the IRES of encephalomyocarditis virus, which directs translation of HCV sequences NS3 to NS5B, and the 3′-NTR. The sequence of the HCV replicon has been deposited in GenBank (Accession no. AJ242652).
The replicon is transfected into Huh-7 cells using standard methods such as electroporation.
The cells are then seeded onto 96-well plates at a density of 6000-7500 cells/100 microliters/well (6-7.5×10^5 cells/10 ml/plate). The plates are then incubated at 37° C. in a 5% CO2 incubator.
HCV replicon-containing cells are rinsed with once PBS once; 2 mls of trypsin are then added. Cells are incubated at 37° C. in a 5% CO2 incubator for 3-5 minutes. 10 mls of complete medium is added to stop the reaction. Cells are blown gently, put into a 15 ml tube, and spun at 1200 rpm for four minutes. The trypsin/medium solution is removed and 5 mls of medium (500 ml DMEM (high glucose)) from BRL catalog #12430-054; 50 mls 10% FBS, 5% Geneticin G418 (50 mg/ml, BRL catalog #10131-035), 5 ml MEM non-essential amino acids (100×BRL #11140-050) and 5 ml pen-strep (BRL #15140-148) is added. The cells and media are mixed carefully
Cells are plated with screening medium (500 ml DMEM (BRL #21063-029), 50 ml FBS (BRL #10082-147) and 5 ml MEM non-essential amino acid (BRL #11140-050) at 6000-7500 fcells/100 μl/well of 96 well plate (6-7.5×10^5 cells/10 ml/plate). Plates are placed into 37° C. 5% CO2 incubator overnight.
The following morning, drugs (test compounds or interferon alpha) are diluted in 96 well U bottom plates with media or DMSO/media, depending on the final concentration chosen for screening. Generally for 6 concentrations of each test compounds ranging from 10 micromolar to 0.03 micromolar are applied. 100 μl of the test compound dilution is placed in wells of the 96 well plate containing the HCV replicon cells. Media without drug is added to some wells as a negative controls. DMSO is known to affect cell growth. Therefore, if drugs diluted in DMSO are used, all wells, including negative control (media only) and positive control (interferon alpha) wells, must contain the same concentration of DMSO, for single dose screening. The plates are incubated at 37° C. in a humidified 5% CO2 environment for three days.
On day four, the NTPII assay is quantitated. The medium is poured from the plates and the plates are washed once in 200 μl of PBS. The PBS is then decanted and the plates tapped in a paper towel to remove any remaining PBS. […]
In turn, `COc1ccc2c(O[C@@H]3C[C@H]4C(=O)N[C@]5(C(=O)NS(=O)(=O)C6CC6)C[C@H]5/C=C\CCCCC[C@H](CC(=O)N5CCCCC5)C(=O)N4C3)cc(-c3ccccc3)nc2c1` [Compound 58, (2R,6R,13aS,14aR,16aS,Z)-N-(cyclopropylsulfonyl)-2-(7-methoxy-2-phenylquinolin-4-yloxy)-5,16-dioxo-6-(2-oxo-2-(piperidin-1-yl)ethyl)-1,2,3,5,6,7,8,9,10,11,13a,14,14a,15,16,16a-hexadecahydrocyclopropa[e]pyrrolo[1,2-a] [1,4]diazacyclopentadecine-14a-carboxamide] came in with an EC50 of less than 100 nM.
For `COc1ccc2c(O[C@@H]3C[C@H]4C(=O)N[C@@]5(C(=O)NS(=O)(=O)C6CC6)C[C@@H]5/C=C\CCCCC[C@H](CC(=O)N5CCCCC5)C(=O)N4C3)cc(-c3ccccc3)nc2c1` [Compound 59, (2R,6R,13aR,14aS,16aS,Z)-N-(cyclopropylsulfonyl)-2-(7-methoxy-2-phenylquinolin-4-yloxy)-5,16-dioxo-6-(2-oxo-2-(piperidin-1-yl)ethyl)-1,2,3,5,6,7,8,9,10,11,13a,14,14a,15,16,16a-hexadecahydrocyclopropa[e]pyrrolo[1,2-a] [1,4]diazacyclopentadecine-14a-carboxamide] the value was less than 100 nM; for `C=C[C@@H]1C[C@]1(NC(=O)[C@@H]1C[C@@H](Oc2cc(-c3ccccc3)nc3cc(OC)ccc23)CN1C(=O)[C@@H](CC(=O)N1CCCCC1)C(C)(C)C)C(=O)NS(=O)(=O)C1CC1` [Compound 60, (2S,4R)-1-((S)-2-tert-butyl-4-oxo-4-(piperidin-1-yl)butanoyl)-N-((1R,2S)-1-(cyclopropylsulfonylcarbamoyl)-2-vinylcyclopropyl)-4-(7-methoxy-2-phenylquinolin-4-yloxy)pyrrolidine-2-carboxamide], less than 100 nM.

As a reminder, the EC50 is the midpoint of the concentration-response curve. A high value points to lower potency in that assay.

The values above are taken from patent US9233136B2, “4-amino-4-oxobutanoyl peptides as inhibitors of viral replication” (Achillion Pharmaceuticals, Inc., priority 2006, dated 2016).
